According to US9879303B2, “Chromogenic glucuronidase substrates and uses” (Glycosynth Limited, priority 2013, dated 2018):
Where a name gives a salt, the structure may show the parent alone.

Assays:
[1] = test system: Acinetobacter baumanaii NCTC 19606; experiment: multi-point inoculation onto Columbia agar plates; also: key: ++ means strong colour; + means less colour than ++; − means no colour; type: cell-based; details: substrate 300 mg/L, FAC 500 mg/L, 18 h at 37° C. in air
Experimental: (§1) The specificity of action of both DHN-β-D-glucuronide (2) and of catechol-β-D-glucuronide (1), as well as their 6′-methyl esters (4 and 6), was first established using multi-point inoculation of 20 different microbial strains onto Columbia agar plates. The strains chosen represented species commonly encountered in diagnostic microbiology. The substrates were incorporated into the agar at a concentration of 300 mg/L with an iron salt, ferric ammonium citrate, (hereinafter known as FAC) at 500 mg/L. The plates were incubated for 18 h at 37° C. in air.

[2] = test system: Bacillus subtilis NCTC 9372; experiment: multi-point inoculation onto Columbia agar plates; also: key: ++ means strong colour; + means less colour than ++; − means no colour; type: cell-based; details: substrate 300 mg/L, FAC 500 mg/L, 18 h at 37° C. in air
Experimental: as §1

[3] = test system: Burkholderia cepacia NCTC 10931; experiment: multi-point inoculation onto Columbia agar plates; type: cell-based; details: substrate 300 mg/L, FAC 500 mg/L, 18 h at 37° C. in air
Experimental: as §1

[4] = test system: Candida albicans ATCC 90028; experiment: multi-point inoculation onto Columbia agar plates; also: key: ++ means strong colour; + means less colour than ++; − means no colour; type: cell-based; details: substrate 300 mg/L, FAC 500 mg/L, 18 h at 37° C. in air
Experimental: as §1

[5] = test system: Candida glabrata NCPF 3943; experiment: multi-point inoculation onto Columbia agar plates; also: key: ++ means strong colour; + means less colour than ++; − means no colour; type: cell-based; details: substrate 300 mg/L, FAC 500 mg/L, 18 h at 37° C. in air
Experimental: as §1

[6] = test system: Enterobacter cloacae NCTC 11936; experiment: multi-point inoculation onto Columbia agar plates; also: key: ++ means strong colour; + means less colour than ++; − means no colour; type: cell-based; details: substrate 300 mg/L, FAC 500 mg/L, 18 h at 37° C. in air
Experimental: as §1

[7] = test system: Enterococcus faecalis NCTC 775; experiment: multi-point inoculation onto Columbia agar plates; also: key: ++ means strong colour; + means less colour than ++; − means no colour; type: cell-based; details: substrate 300 mg/L, FAC 500 mg/L, 18 h at 37° C. in air
Experimental: as §1

[8] = test system: Enterococcus faecium NCTC 7171; experiment: multi-point inoculation onto Columbia agar plates; also: key: ++ means strong colour; + means less colour than ++; − means no colour; type: cell-based; details: substrate 300 mg/L, FAC 500 mg/L, 18 h at 37° C. in air
Experimental: as §1

[9] = test system: Escherichia coli NCTC 10418; experiment: multi-point inoculation onto Columbia agar plates; type: cell-based; details: for intensity of the colour / performance compared with the other substrates: comparison in words, Columbia agar with FAC; for colour: substrate 300 mg/L, FAC 500 mg/L, 18 h at 37° C. in air
Experimental: as §1

[10] = test system: Klebsiella pneumoniae NCTC 9528; experiment: multi-point inoculation onto Columbia agar plates; also: key: ++ means strong colour; + means less colour than ++; − means no colour; type: cell-based; details: substrate 300 mg/L, FAC 500 mg/L, 18 h at 37° C. in air
Experimental: as §1

[11] = test system: Listeria monocytogenes NCTC 11994; experiment: multi-point inoculation onto Columbia agar plates; also: key: ++ means strong colour; + means less colour than ++; − means no colour; type: cell-based; details: substrate 300 mg/L, FAC 500 mg/L, 18 h at 37° C. in air
Experimental: as §1

[12] = test system: Providencia rettgeri NCTC 7475; experiment: multi-point inoculation onto Columbia agar plates; also: key: ++ means strong colour; + means less colour than ++; − means no colour; type: cell-based; details: substrate 300 mg/L, FAC 500 mg/L, 18 h at 37° C. in air
Experimental: as §1

[13] = test system: Pseudomonas aeruginosa NCTC 10662; experiment: multi-point inoculation onto Columbia agar plates; also: key: ++ means strong colour; + means less colour than ++; − means no colour; type: cell-based; details: substrate 300 mg/L, FAC 500 mg/L, 18 h at 37° C. in air
Experimental: as §1

[14] = test system: Salmonella typhimurium NCTC 74; experiment: multi-point inoculation onto Columbia agar plates; also: key: ++ means strong colour; + means less colour than ++; − means no colour; type: cell-based; details: substrate 300 mg/L, FAC 500 mg/L, 18 h at 37° C. in air
Experimental: as §1

[15] = test system: Serratia marcescens NCTC 10211; experiment: multi-point inoculation onto Columbia agar plates; also: key: ++ means strong colour; + means less colour than ++; − means no colour; type: cell-based; details: substrate 300 mg/L, FAC 500 mg/L, 18 h at 37° C. in air
Experimental: as §1

[16] = test system: Staphylococcus aureus (MRSA) NCTC 11939; experiment: multi-point inoculation onto Columbia agar plates; also: key: ++ means strong colour; + means less colour than ++; − means no colour; type: cell-based; details: substrate 300 mg/L, FAC 500 mg/L, 18 h at 37° C. in air
Experimental: as §1

[17] = test system: Staphylococcus aureus NCTC 6571; experiment: multi-point inoculation onto Columbia agar plates; also: key: ++ means strong colour; + means less colour than ++; − means no colour; type: cell-based; details: substrate 300 mg/L, FAC 500 mg/L, 18 h at 37° C. in air
Experimental: as §1

[18] = test system: Staphylococcus epidermidis NCTC 11047; experiment: multi-point inoculation onto Columbia agar plates; also: key: ++ means strong colour; + means less colour than ++; − means no colour; type: cell-based; details: substrate 300 mg/L, FAC 500 mg/L, 18 h at 37° C. in air
Experimental: as §1

[19] = test system: Streptococcus pyogenes NCTC 8306; experiment: multi-point inoculation onto Columbia agar plates; also: key: ++ means strong colour; + means less colour than ++; − means no colour; type: cell-based; details: substrate 300 mg/L, FAC 500 mg/L, 18 h at 37° C. in air
Experimental: as §1

[20] = test system: Yersinia enterocolitica NCTC 11176; experiment: multi-point inoculation onto Columbia agar plates; type: cell-based; details: substrate 300 mg/L, FAC 500 mg/L, 18 h at 37° C. in air
Experimental: as §1

[21] = test system: 20 different microbial strains; experiment: specificity of action on 20 different microbial strains, Columbia agar; type: cell-based; details: 19 organisms other than E. coli NCTC 10418, FAC
Experimental: as §1
Of the 20 strains, only the β-D-glucuronidase-positive strain of E. coli, (E. coli NCTC 10418) was able to hydrolyse the substrates. This organism generated diffuse, purple-brown colonies with the catechol substrates and diffuse, maroon colonies with the DHN substrates. Essentially identical results were obtained if other iron salts (e.g. iron(II) gluconate, iron(II) acetate, iron(II) citrate, iron(II) acetylacetonate and iron(III) acetylacetonate) were substituted in place of FAC. The iron compound can be either iron(II) (i.e. ferrous) or iron(III) (i.e. ferric). Both types of compound work equally, and the coloured chelates were still formed when the plates were incubated under anaerobic conditions, which is another useful feature of the present invention. The substrates may also be autoclaved at 116° C. for 20 minutes with no decrease in sensitivity. It will be appreciated that the media and the reagents will all contain at least traces of iron compounds. […] In contrast, supplementing the growth media with compounds of other metals gave either no coloured endpoint or an extremely poor one to visualise. […] Therefore the latter substrates were preferred for more extensive evaluation. […] For convenience, further evaluation of catechol-β-D-glucuronide and DHN-β-D-glucuronide was conducted with the CHA salt forms only (1 and 2b). In the present invention the counter ion of the glucuronide is not considered to be of special significance. For acidic enzyme substrates (including glucuronides), a variety of different counter ions, both inorganic and organic, are well known in the prior art.

For COC(=O)C1OC(Oc2ccccc2O)C(OC(C)=O)C(OC(C)=O)C1OC(C)=O [Compound 3, Catechol 2′,3′,4′,-tri-O-acetyl β-D-glucuronide-6′-methyl ester], which melting point is on record?
Its melting point is 128 to 130 °C.

Which colour [1] does the source give for COC(=O)C1OC(Oc2ccccc2O)C(O)C(O)C1O [Compound 4, Catechol β-D-Glucuronide-6′-Methyl Ester] here?
The colour was “−”.

And the colour [2]?
The colour was “−”.

What about the colour [3] of the same compound?
Its colour is “−”.

And the colour [4]?
Its colour is “−”.

And the colour [5]?
Its colour is “−”.

And the colour [6]?
The colour was “−”.

And the colour [7]?
Its colour is “−”.

What about the colour [8] of the same compound?
Its colour is “−”.

And the “intensity of the colour / performance compared with the other substrates” value [9]?
The value was “noticeably inferior”.

And the colour [9]?
The colour was “+”.

What about the colour [10] of the same compound?
Its colour is “−”.

And the colour [11]?
Its colour is “−”.

What about the colour [12] of the same compound?
The colour was “−”.

And the colour [13]?
The colour was “−”.

What about the colour [14] of the same compound?
The colour was “−”.

And the colour [15]?
Its colour is “−”.

What about the colour [16] of the same compound?
Its colour is “−”.

What about the colour [17] of the same compound?
Its colour is “−”.

And the colour [18]?
Its colour is “−”.

And the colour [19]?
The colour was “−”.

What about the colour [20] of the same compound?
The colour was “−”.

And the “result with the other 19 organisms” value [21]?
The value was “uniformly negative”.

Which melting point does the source give for O=C(O)C1OC(Oc2cc3ccccc3cc2O)C(O)C(O)C1O (as salt: salt) [Compound 2b, DHN-β-D-Glucuronide CHA Salt] here?
Its melting point is 223 to 224 °C.

For O=C([O-])C1OC(Oc2cc3ccccc3cc2O)C(O)C(O)C1O.[Na+] [Compound 2a, DHN-β-D-Glucuronide Sodium Salt], which colour [1] is on record?
The colour was “−”.

What about the colour [2] of the same compound?
The colour was “−”.

And the colour [3]?
The colour was “−”.

And the colour [4]?
The colour was “−”.

And the colour [5]?
The colour was “−”.

And the colour [6]?
Its colour is “−”.

And the colour [7]?
Its colour is “−”.

What about the colour [8] of the same compound?
Its colour is “−”.

And the “intensity of the colour / performance compared with the other substrates” value [9]?
Its value is “performed the same as its CHA salt (2b)”.

And the colour [9]?
The colour was “++”.

What about the colour [10] of the same compound?
The colour was “−”.

What about the colour [11] of the same compound?
Its colour is “−”.

And the colour [12]?
Its colour is “−”.

And the colour [13]?
Its colour is “−”.

And the colour [14]?
Its colour is “−”.

What about the colour [15] of the same compound?
Its colour is “−”.

And the colour [16]?
Its colour is “−”.

What about the colour [17] of the same compound?
Its colour is “−”.

And the colour [18]?
The colour was “−”.

What about the colour [19] of the same compound?
The colour was “−”.

What about the colour [20] of the same compound?
Its colour is “−”.

What about the “result with the other 19 organisms” value [21] of the same compound?
The value was “uniformly negative”.

And the melting point?
The melting point was 53 to 55 °C.

What does the source list for COC(=O)C1OC(Oc2cc3ccccc3cc2O)C(O)C(O)C1O [Compound 6, DHN-β-D-Glucuronide-6′-Methyl Ester]?
colour [1]: −; colour [2]: −; colour [3]: −; colour [4]: −; colour [5]: −; colour [6]: −; colour [7]: −; colour [8]: −; intensity of the colour / performance compared with the other substrates [9]: noticeably inferior; colour [9]: +; colour [10]: −; colour [11]: −; colour [12]: −; colour [13]: −; colour [14]: −; colour [15]: −; colour [16]: −; colour [17]: −; colour [18]: −; colour [19]: −; colour [20]: −; result with the other 19 organisms [21]: uniformly negative

With COC(=O)C1OC(Oc2cc3ccccc3cc2O)C(OC(C)=O)C(OC(C)=O)C1OC(C)=O [Compound 5, DHN-2′,3′,4′-tri-O-acetyl-β-D-glucuronide-6-methyl ester] as the compound, how does the melting point read?
Its melting point is 191 to 192 °C.

With O=C(O)C1OC(Oc2ccccc2O)C(O)C(O)C1O (as salt: salt) [Compound 1, Catechol β-D-Glucuronide CHA Salt] as the compound, how does the melting point read?
Its melting point is 208 to 210 °C.
